# Measurements published in ChEMBL document CHEMBL4422633, “Antioxidant-Inspired Drug Discovery: Antitumor Metabolite Is Formed in Situ from a Hydroxycinnamic Acid Derivative upon Free-Radical Scavenging” (J Med Chem, 2019).
# Activity calls are given as the source filed them. The calls are words filed in the database; no cut-off is given here.
# Tests used:
# [1] = Cytotoxicity against mouse L5178 cells assessed as reduction in cell viability after 72 hrs by MTT assay; type: functional, cell-based; conditions: L5178, 72 h
# [2] = Cytotoxicity against mouse L5178B1 cells transfected with pHa MDR1/A retrovirus assessed as reduction in cell viability after 72 hrs by MTT assay; type: functional, cell-based; conditions: MDR1, 72 h
# NCI-H460 [3] = assay: Cytotoxicity against human NCI-H460 cells assessed as reduction in cell viability after 72 hrs by MTT assay; type: functional, cell-based; conditions: NCI-H460, 72 h
# [4] = Cytotoxicity against human NCI-H460/R cells transfected with MDR assessed as reduction in cell viability after 72 hrs by MTT assay; type: functional, cell-based; conditions: NCI-H460, 72 h
# A549 [5] = assay: Cytotoxicity against human A549 cells assessed as reduction in cell viability after 72 hrs by MTT assay; type: functional, cell-based; conditions: A549, 72 h
# NCI-H661 [6] = assay: Cytotoxicity against human NCI-H661 cells assessed as reduction in cell viability after 72 hrs by MTT assay; type: functional, cell-based; conditions: NCI-H661, 72 h
# HaCaT [7] = assay: Cytotoxicity against human HaCaT cells assessed as reduction in cell viability after 72 hrs by MTT assay; type: cell-based
# HeLa = assay: Cytotoxicity against human HeLa cells assessed as reduction in cell viability after 72 hrs by MTT assay; type: functional, cell-based
# NCI-H460 [8] = assay: Induction of apoptosis in human NCI-H460 cells assessed as viable cells at 10 uM after 24 hrs by Annexin V/propidium iodide-staining based flow cytometry (reference value: 96.49 +/- 0.96%); type: functional; conditions: NCI-H460, 24 h, read-out: Activity
# [9] = Induction of apoptosis in human NCI-H460/R cells transfected with MDR assessed as viable cells at 10 uM after 24 hrs by Annexin V/propidium iodide-staining based flow cytometry (reference value: 95.76 +/- 2.87%); type: functional; conditions: NCI-H460, 24 h, read-out: Activity
# A549 [10] = assay: Induction of apoptosis in human A549 cells assessed as viable cells at 10 uM after 24 hrs by Annexin V/propidium iodide-staining based flow cytometry (reference value: 96.45 +/- 2.89%); type: functional; conditions: A549, 24 h, read-out: Activity
# NCI-H661 [11] = assay: Induction of apoptosis in human NCI-H661 cells assessed as viable cells at 10 uM after 24 hrs by Annexin V/propidium iodide-staining based flow cytometry (reference value: 96.16 +/- 0.96%); type: functional; conditions: NCI-H661, 24 h, read-out: Activity
# [12] = Induction of apoptosis in human HaCaT cells assessed as viable cells at 10 uM after 24 hrs by Annexin V/propidium iodide-staining based flow cytometry (reference value: 95.63 +/- 3.83%); type: cell-based; conditions: read-out: Activity
# NCI-H460 [13] = assay: Induction of apoptosis in human NCI-H460 cells assessed as early apoptotic cells at 10 uM after 24 hrs by Annexin V/propidium iodide-staining based flow cytometry (reference value: 0.45 +/- 0.01%); type: functional
# [14] = Induction of apoptosis in human NCI-H460/R cells transfected with MDR assessed as early apoptotic cells at 10 uM after 24 hrs by Annexin V/propidium iodide-staining based flow cytometry (reference value: 0.22 +/- 0.01%); type: functional
# A549 [15] = assay: Induction of apoptosis in human A549 cells assessed as early apoptotic cells at 10 uM after 24 hrs by Annexin V/propidium iodide-staining based flow cytometry (reference value: 0.48 +/- 0.01%); type: functional
# NCI-H661 [16] = assay: Induction of apoptosis in human NCI-H661 cells assessed as early apoptotic cells at 10 uM after 24 hrs by Annexin V/propidium iodide-staining based flow cytometry (reference value: 0.31 +/- 0.01%); type: functional
# HaCaT [17] = assay: Induction of apoptosis in human HaCaT cells assessed as early apoptotic cells at 10 uM after 24 hrs by Annexin V/propidium iodide-staining based flow cytometry (reference value: 0.23 +/- 0.01%); type: cell-based
# NCI-H460 [18] = assay: Induction of apoptosis in human NCI-H460 cells assessed as late apoptotic cells at 10 uM after 24 hrs by Annexin V/propidium iodide-staining based flow cytometry (reference value: 0.93 +/- 0.04%); type: functional
# [19] = Induction of apoptosis in human NCI-H460/R cells transfected with MDR assessed as late apoptotic cells at 10 uM after 24 hrs by Annexin V/propidium iodide-staining based flow cytometry (reference value: 0.84 +/- 0.01%); type: functional
# A549 [20] = assay: Induction of apoptosis in human A549 cells assessed as late apoptotic cells at 10 uM after 24 hrs by Annexin V/propidium iodide-staining based flow cytometry (reference value: 1.54 +/- 0.03%); type: functional
# NCI-H661 [21] = assay: Induction of apoptosis in human NCI-H661 cells assessed as late apoptotic cells at 10 uM after 24 hrs by Annexin V/propidium iodide-staining based flow cytometry (reference value: 0.95 +/- 0.03%); type: functional
# HaCaT [22] = assay: Induction of apoptosis in human HaCaT cells assessed as late apoptotic cells at 10 uM after 24 hrs by Annexin V/propidium iodide-staining based flow cytometry (reference value: 2.26 +/- 0.09%); type: cell-based
# NCI-H460 [23] = assay: Induction of apoptosis in human NCI-H460 cells assessed as necrotic cells at 10 uM after 24 hrs by Annexin V/propidium iodide-staining based flow cytometry (reference value: 2.13 +/- 0.02%); type: functional
# [24] = Induction of apoptosis in human NCI-H460/R cells transfected with MDR assessed as necrotic cells at 10 uM after 24 hrs by Annexin V/propidium iodide-staining based flow cytometry (reference value: 3.17 +/- 0.13%); type: functional
# A549 [25] = assay: Induction of apoptosis in human A549 cells assessed as necrotic cells at 10 uM after 24 hrs by Annexin V/propidium iodide-staining based flow cytometry (reference value: 1.52 +/- 0.05%); type: functional
# NCI-H661 [26] = assay: Induction of apoptosis in human NCI-H661 cells assessed as necrotic cells at 10 uM after 24 hrs by Annexin V/propidium iodide-staining based flow cytometry (reference value: 2.58 +/- 0.05%); type: functional
# HaCaT [27] = assay: Induction of apoptosis in human HaCaT cells assessed as necrotic cells at 10 uM after 24 hrs by Annexin V/propidium iodide-staining based flow cytometry (reference value: 1.88 +/- 0.02%); type: cell-based
# NCI-H460 [28] = assay: DNA protective activity in human NCI-H460 cells assessed as reduction in H2AX expression at 10 uM after 24 hrs by alexa fluor 488-staining based flow cytometry; type: functional, cell-based
# HaCaT [29] = assay: DNA protective activity in human HaCaT cells assessed as reduction in H2AX expression at 10 uM after 24 hrs by alexa fluor 488-staining based flow cytometry; type: functional, cell-based
# Homo sapiens [30] = species: Homo sapiens; assay: DNA protective activity in human NCI-H460/R cells transfected with MDR assessed as increase in H2AX expression at 10 uM after 24 hrs by alexa fluor 488-staining based flow cytometry; type: functional, cell-based
# NCI-H460 [31] = assay: Reduction in ROS generation in human NCI-H460 cells assessed as decrease in DHE positive cells at 10 uM after 24 hrs by DHE-staining based flow cytometry; type: functional, cell-based
# A549 [32] = assay: Reduction in ROS generation in human A549 cells assessed as decrease in DHE positive cells at 10 uM after 24 hrs by DHE-staining based flow cytometry; type: functional, cell-based
# NCI-H661 [33] = assay: Reduction in ROS generation in human NCI-H661 cells assessed as decrease in DHE positive cells at 10 uM after 24 hrs by DHE-staining based flow cytometry; type: functional, cell-based
# Homo sapiens [34] = species: Homo sapiens; assay: Reduction in ROS generation in human NCI-H460/R cells transfected with MDR assessed as reduction in DHE positive cells at 10 uM after 24 hrs by DHE-staining based flow cytometry; type: functional, cell-based
# HaCaT [35] = assay: Reduction in ROS generation in human HaCaT cells assessed as decrease in DHE positive cells at 10 uM after 24 hrs by DHE-staining based flow cytometry; type: functional, cell-based
smiles,measurement,setting,value
COC(=O)/C=C/c1cc(O)ccc1O,IC50,[1],5.23 µM
same,IC50,[2],12.4 µM
same,IC50,NCI-H460 [3],3.77 µM
same,IC50,[4],7.05 µM
same,IC50,A549 [5],4.14 µM
same,IC50,NCI-H661 [6],4.19 µM
same,IC50,HaCaT [7],9.69 µM
same,IC50,HeLa,8.51 µM
same,viability at 10 µM,NCI-H460 [8],86.6%
same,viability at 10 µM,[9],89.7%
same,viability at 10 µM,A549 [10],88.2%
same,viability at 10 µM,NCI-H661 [11],89.4%
same,"viability at 24 h, 10 µM",[12],91%
same,Activity,NCI-H460 [13],0.34%
same,Activity,[14],0.16%
same,Activity,A549 [15],2.36%
same,Activity,NCI-H661 [16],0.49%
same,Activity,HaCaT [17],0.5%
same,Activity,NCI-H460 [18],5.1%
same,Activity,[19],2.48%
same,Activity,A549 [20],5.62%
same,Activity,NCI-H661 [21],3.39%
same,Activity,HaCaT [22],2.65%
same,Activity,NCI-H460 [23],9.92%
same,Activity,[24],7.71%
same,Activity,A549 [25],3.78%
same,Activity,NCI-H661 [26],6.69%
same,Activity,HaCaT [27],5.9%
same,Activity,NCI-H460 [28],Active
same,Activity,HaCaT [29],Active
same,Activity,Homo sapiens [30],Active
same,Activity,NCI-H460 [31],Active
same,Activity,A549 [32],Active
same,Activity,NCI-H661 [33],Active
same,Activity,Homo sapiens [34],Active
same,Activity,HaCaT [35],Active
